Measurements: patent US11542264B2, “Heteroaromatic NMDA receptor modulators and uses thereof” (Cadent Therapeutics, Inc., priority 2018, dated 2023)
Values after ≈ are worked out from the molar mass of the structure shown. “Also recorded” adds a separate entry of the source.

What was measured:
[1] = Rat IV pharmacokinetic study, in vivo clearance
Source text: Rat microsomal stability data is provided as well. These improvements in in vitro and in vivo clearance are advantageous because reduced clearance, in one aspect, is anticipated to provide enhanced in vivo performance in humans.

hNR2B [2] = biological target: T1, hNR2B (Homo sapiens, UniProt Q05586+Q13224); experiment: Oocyte 2EVC NR2B PAM activity; type: cell-based; details: oocytes expressing hNR2B, 5 μM glutamate and 3 μM glycine; read-out: Oocyte 2EVC NR2B PAM: Avg EC50
T1 construct: expressed in transfected cells
Source text: (§1) EC50 refers to the concentration of a compound that gives half-maximal response.

hNR2B [3] = biological target: T2, hNR2B (Homo sapiens, UniProt Q13224); experiment: Oocyte 2EVC NR2B PAM activity; type: cell-based
T2 construct: expressed in transfected cells
T2 sequence (Q13224 27-1484, other chains not shown): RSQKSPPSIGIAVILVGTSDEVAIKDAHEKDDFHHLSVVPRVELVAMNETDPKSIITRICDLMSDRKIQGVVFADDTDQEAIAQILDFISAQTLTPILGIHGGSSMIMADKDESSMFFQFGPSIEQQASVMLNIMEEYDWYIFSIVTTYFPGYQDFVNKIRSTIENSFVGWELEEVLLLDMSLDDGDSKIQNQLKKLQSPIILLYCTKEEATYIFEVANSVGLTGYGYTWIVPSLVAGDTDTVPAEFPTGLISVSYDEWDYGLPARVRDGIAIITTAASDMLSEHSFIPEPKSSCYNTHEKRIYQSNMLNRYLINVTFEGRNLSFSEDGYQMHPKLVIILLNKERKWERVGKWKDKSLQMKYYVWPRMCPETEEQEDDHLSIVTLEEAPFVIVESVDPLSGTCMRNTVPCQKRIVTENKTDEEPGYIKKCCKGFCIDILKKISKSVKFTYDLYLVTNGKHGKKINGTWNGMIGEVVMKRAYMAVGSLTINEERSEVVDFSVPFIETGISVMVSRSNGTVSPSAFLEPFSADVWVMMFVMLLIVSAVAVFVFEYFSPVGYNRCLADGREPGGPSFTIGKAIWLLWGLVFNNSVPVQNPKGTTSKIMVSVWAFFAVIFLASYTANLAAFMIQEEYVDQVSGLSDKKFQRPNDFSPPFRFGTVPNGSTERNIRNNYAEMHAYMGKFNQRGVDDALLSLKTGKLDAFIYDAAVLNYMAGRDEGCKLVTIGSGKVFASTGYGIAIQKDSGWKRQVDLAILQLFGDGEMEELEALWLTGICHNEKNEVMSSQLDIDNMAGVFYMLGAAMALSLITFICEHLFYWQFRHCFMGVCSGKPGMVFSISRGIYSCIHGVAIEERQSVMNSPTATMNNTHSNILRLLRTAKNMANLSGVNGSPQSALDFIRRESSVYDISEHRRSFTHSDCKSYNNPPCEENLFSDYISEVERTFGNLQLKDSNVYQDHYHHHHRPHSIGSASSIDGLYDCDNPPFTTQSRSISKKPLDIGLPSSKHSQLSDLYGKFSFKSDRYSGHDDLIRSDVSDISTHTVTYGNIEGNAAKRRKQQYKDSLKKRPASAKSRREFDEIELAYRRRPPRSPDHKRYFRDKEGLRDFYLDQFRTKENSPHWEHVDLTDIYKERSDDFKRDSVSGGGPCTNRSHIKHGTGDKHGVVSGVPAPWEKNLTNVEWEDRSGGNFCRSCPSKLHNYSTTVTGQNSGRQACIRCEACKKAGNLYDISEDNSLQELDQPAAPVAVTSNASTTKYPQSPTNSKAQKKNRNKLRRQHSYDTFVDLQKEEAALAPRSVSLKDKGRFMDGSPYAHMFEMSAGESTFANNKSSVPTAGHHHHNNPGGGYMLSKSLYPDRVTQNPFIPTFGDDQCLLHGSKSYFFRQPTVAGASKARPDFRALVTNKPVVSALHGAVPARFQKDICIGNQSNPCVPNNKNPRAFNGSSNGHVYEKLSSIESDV
Source text: as §1

hNR2D [4] = biological target: T3, hNR2D (Homo sapiens, UniProt O15399); experiment: Oocyte 2EVC NR2D PAM activity; type: cell-based
T3 construct: expressed in transfected cells
T3 sequence (O15399 28-1336, other chains not shown): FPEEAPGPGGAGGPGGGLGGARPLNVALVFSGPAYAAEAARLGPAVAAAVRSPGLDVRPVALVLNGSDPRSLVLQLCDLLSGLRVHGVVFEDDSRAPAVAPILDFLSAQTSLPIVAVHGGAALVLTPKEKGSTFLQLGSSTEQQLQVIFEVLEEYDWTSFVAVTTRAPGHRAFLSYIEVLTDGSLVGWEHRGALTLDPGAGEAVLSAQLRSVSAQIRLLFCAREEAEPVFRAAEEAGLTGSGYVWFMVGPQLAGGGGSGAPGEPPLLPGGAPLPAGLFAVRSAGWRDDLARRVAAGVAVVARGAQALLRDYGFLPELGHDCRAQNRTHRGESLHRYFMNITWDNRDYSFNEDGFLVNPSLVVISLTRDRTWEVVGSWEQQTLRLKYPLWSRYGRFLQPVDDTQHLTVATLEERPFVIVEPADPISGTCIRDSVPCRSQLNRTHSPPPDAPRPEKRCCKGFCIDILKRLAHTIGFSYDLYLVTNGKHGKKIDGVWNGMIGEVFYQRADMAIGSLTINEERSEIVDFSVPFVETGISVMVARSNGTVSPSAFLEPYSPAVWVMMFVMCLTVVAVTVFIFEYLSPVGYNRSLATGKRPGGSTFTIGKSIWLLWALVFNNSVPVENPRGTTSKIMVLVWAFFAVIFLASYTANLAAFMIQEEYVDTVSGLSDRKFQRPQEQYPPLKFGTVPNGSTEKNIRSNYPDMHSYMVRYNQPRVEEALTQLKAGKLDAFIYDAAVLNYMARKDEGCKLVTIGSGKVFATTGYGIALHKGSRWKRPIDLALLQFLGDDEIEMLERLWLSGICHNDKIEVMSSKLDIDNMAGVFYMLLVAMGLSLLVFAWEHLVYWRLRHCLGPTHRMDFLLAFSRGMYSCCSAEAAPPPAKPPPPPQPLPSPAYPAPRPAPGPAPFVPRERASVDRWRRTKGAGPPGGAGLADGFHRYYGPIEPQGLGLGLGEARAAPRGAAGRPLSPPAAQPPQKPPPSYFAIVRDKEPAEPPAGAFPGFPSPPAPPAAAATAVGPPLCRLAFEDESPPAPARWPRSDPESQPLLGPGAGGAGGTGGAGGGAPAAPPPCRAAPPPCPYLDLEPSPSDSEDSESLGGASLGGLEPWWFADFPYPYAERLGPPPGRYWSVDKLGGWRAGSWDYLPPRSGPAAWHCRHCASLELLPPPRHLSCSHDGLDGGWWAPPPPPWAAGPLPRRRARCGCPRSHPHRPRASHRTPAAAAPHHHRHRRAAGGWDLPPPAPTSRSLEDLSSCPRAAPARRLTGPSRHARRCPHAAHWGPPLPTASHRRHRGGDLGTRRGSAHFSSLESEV
Source text: as §1

hNR2D [5] = biological target: T4, hNR2D (Homo sapiens, UniProt O15399+Q05586); experiment: Oocyte 2EVC NR2D PAM activity; type: cell-based; details: oocytes expressing hNR2D, 10 μM glutamate and 10 μM glycine
T4 construct: expressed in transfected cells
T4 sequence (O15399 28-1336, other chains not shown): as above
Source text: as §1

[6] = Aqueous solubility, shake-flask method; type: physicochemical; details: phosphate buffer saline, pH 7.4, aqueous buffer, kinetic from dmso stock, pH 7.4, shake-flask, HPLC-UV
Procedure: The aqueous solubility of the test compound was determined in phosphate buffer saline, pH 7.4, measured by shake-flask method. In this assay, DMSO stock solution of test compound was added to buffer followed by equilibration (shaking), filtration, and determination of soluble amount by HPLC-UV. […] Other imidazopyrazinone comparators from WO 2017/100591 are provided for reference. All comparator analogs are active and potency data is available in WO 2017/100591. This improvement is advantageous because improved aqueous solubility, in one aspect, is anticipated to provide enhanced in vivo performance in humans.

[7] = test system: PCP-induced cognitive impairment; experiment: Rat Novel Object Recognition (NOR) test, PCP-induced cognitive impairment; details: oral
Procedure: Rats were treated twice daily for 7 days with either saline vehicle (control group) or PCP (5 mg/kg, intraperitoneal). Following a 14-day washout period of no treatment, rats were tested in the NOR paradigm. Briefly, testing involves two sessions (T1 and T2), each lasting 3 minutes, 1 hour apart. […] In T1, rats are placed in a test arena with two identical objects and allowed to freely explore while their time spent exploring each object is recorded. In T2, rats are returned to the test arena where one of the objects remains the same and the other has been replaced with a novel object. The time spent exploring the novel object versus the time spent exploring the familiar object are recorded and compared to T1 object exploration times.

[8] = Rat liver microsome stability; type: in vitro ADME
Source text: (§2) The liver is the most important site of drug metabolism in the body. Approximately 60% of marketed compounds are cleared by hepatic CYP-mediated metabolism (McGinnity, D. F.; Soars, M. G.; Urbanowicz, R. A. and Riley, R. J.; Drug Metab. Disp. 32, 1247, (2004)). Liver microsomes are subcellular fractions which contain membrane bound drug metabolizing enzymes. Microsomes can be used to determine the in vitro intrinsic clearance of a compound. The use of species-specific microsomes can be used to enable an understanding of interspecies differences.

MDR1 = experiment: MDCK permeability and efflux assay; type: in vitro ADME; details: dog, MDR1-transfected MDCK cells
Source text: (§3) Monolayer systems consist of a tight cell layer grown on a porous support to separate two fluid compartments. They are widely regarded as the most sophisticated in vitro tools for medium to high throughput modeling of important pharmacokinetic barriers, such as intestinal epithelium, blood-brain barrier, etc. (J. Pharm Sci. 2012 April; 101(4): 1337-1354). Two systems that are applied widely in monolayer studies are the human colon carcinoma cell line Caco-2 and MDR1-transfected MDCKII and LLC-PK1 cells. In monolayer assays, the flux of a compound through the monolayer of cells is measured. The unidirectional flux of the compound of interest is determined by applying it to either the apical or to the basolateral side of the cell layer and monitoring the time resolved redistribution of it between the two compartments. The vectorial transport ratio (often referred to as Efflux Ratio) is determined by applying bidirectional measurements [apical-to-basolateral (A-B) and basolateral-to-apical (B-A)]. […] In the absence of such transport processes this ratio is approximately 1.

[9] = test system: MDR1-transfected MDCK cells; experiment: MDCK permeability and efflux assay; type: in vitro ADME
Source text: as §3

[10] = test system: impairment of MMN by MK-801; experiment: Mismatch negativity (MMN) efficacy model; details: rat, 60 mg/kg BID, MK-801 0.2 mg/kg IP
Procedure: Rats implanted with frontal EEG electrodes were presented with different audio stimuli comprising an auditory oddball “flip-flop” protocol. Briefly, 1,000 standard tones of 6.0 kHz were delivered at 90% probability, and 100 deviant tones of 8.0 kHz were delivered at 10% probability in pseudo-random order (the flip sequence), and then this sequence was then repeated with the 8 kHz tone as the standard, and the 6 kHz tone as the deviant (the flop sequence). MMN is calculated as a difference potential obtained by subtracting the averaged 8 kHz standard tone response (flop) from the averaged 8 kHz deviance tone response (flip) at each 1 ms time point over the EEG recording epochs from 50 ms prior to 150 ms after the onset of these 50 ms auditory tones.
Test sessions were comprised of three 20-minute flip-flop blocks.

[11] = Human liver microsome stability; type: in vitro ADME
Source text: as §2

hNR2C = biological target: T5, hNR2C (Homo sapiens, UniProt Q14957); experiment: Oocyte 2EVC NR2C PAM activity; type: cell-based
T5 construct: expressed in transfected cells
T5 sequence (Q14957 20-1233, other chains not shown): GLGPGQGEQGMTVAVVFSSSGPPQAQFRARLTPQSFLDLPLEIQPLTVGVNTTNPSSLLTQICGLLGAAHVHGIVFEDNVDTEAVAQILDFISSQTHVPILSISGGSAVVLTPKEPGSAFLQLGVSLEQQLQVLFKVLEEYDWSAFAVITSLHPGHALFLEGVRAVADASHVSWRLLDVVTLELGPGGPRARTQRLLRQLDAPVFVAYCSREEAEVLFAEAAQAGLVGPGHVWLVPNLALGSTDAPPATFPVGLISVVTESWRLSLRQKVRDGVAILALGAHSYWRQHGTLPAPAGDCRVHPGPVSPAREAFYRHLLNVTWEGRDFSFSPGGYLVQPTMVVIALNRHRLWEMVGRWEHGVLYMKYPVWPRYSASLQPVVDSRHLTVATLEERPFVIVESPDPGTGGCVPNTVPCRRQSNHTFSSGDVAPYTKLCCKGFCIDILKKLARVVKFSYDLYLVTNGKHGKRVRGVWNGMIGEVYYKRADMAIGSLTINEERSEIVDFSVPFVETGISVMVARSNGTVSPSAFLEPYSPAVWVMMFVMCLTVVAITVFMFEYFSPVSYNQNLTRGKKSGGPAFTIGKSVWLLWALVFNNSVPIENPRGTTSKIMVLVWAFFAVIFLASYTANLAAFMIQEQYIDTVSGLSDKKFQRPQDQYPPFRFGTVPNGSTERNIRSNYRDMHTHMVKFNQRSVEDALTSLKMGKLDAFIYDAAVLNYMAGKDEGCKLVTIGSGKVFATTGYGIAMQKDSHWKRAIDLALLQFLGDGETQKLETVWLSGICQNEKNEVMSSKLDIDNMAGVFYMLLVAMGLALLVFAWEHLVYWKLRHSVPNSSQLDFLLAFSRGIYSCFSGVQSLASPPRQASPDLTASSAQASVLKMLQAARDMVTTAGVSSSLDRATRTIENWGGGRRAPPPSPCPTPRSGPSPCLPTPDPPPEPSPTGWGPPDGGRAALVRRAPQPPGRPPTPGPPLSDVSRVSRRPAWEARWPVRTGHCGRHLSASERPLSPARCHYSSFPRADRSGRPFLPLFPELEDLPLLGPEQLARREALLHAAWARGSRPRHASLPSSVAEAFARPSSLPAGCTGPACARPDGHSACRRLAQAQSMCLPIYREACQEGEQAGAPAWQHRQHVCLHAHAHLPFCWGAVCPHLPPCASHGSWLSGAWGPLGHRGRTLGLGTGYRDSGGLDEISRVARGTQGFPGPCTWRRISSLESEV
Source text: as §1

[12] = 100% potentiation = doubling of current induced by glutamate/glycine
[13] = 10 μM glutamate and 10 μM glycine

SMILES: CC1(F)CN(C(=O)Cn2cnc3c(c(-c4ccc(F)c(Cl)c4)cn3C3CC3)c2=O)C1 [Compound 1, 5-(3-chloro-4-fluorophenyl)-7-cyclopropyl-3-(2-(3-fluoro-3-methylazetidin-1-yl)-2-oxoethyl)-3,7-dihydro-4H-pyrrolo[2,3-d]pyrimidin-4-one]
- clearance [1]: 7.4 mL/min/kg
- EC50 (hNR2B [2]): 446 nM
- Oocyte 2EVC NR2B PAM: Concentration Required for Current Doubling (hNR2B [3]; 5 μM glutamate and 3 μM glycine): 160 nM
- Oocyte 2EVC NR2B PAM: Avg Max % Potentiation (hNR2B [3]; [12]): 478%
- Oocyte 2EVC NR2D PAM: Concentration Required for Current Doubling (hNR2D [4]; [13]): 165 nM
- Oocyte 2EVC NR2D PAM: Avg Max % Potentiation (hNR2D [4]; [12]): 1700%
- EC50 (hNR2D [5]): 1890 nM
- solubility [6]: 29 µM (≈ 12.6 µg/mL)
- reversal of PCP-induced deficit in novel object exploration time ([7]; 0.3 mg/kg): significantly reversed this deficit
- reversal of PCP-induced deficit in novel object exploration time ([7]; 1.0 mg/kg): significantly reversed this deficit; also recorded: fully-reversed the PCP-induced deficit
- stability in Rat Liver Microsomes (in words) [8]: excellent stability
- Rat liver microsome (RLM) stability t1/2 ([8]; Table 4): >2 h
- RLM t1/2 ([8]; rat liver microsomes): >2 h
- RLM % Metabolized after 30 min ([8]; rat liver microsomes, 30 min): 1.83%
- microsomal CLint ([8]; rat liver microsomes, read-out: RLM mCLint): < 5 µL/min/mg
- half-life ([8]; rat, liver microsomes, Table 4, read-out: Rat liver microsome (RLM) stability t1/2): > 2 h
- Papp A→B (MDR1; MDCK-MDR1, apical-to-basolateral): 32 ×10⁻⁶ cm/s
- Papp B→A (MDR1; MDCK-MDR1, basolateral-to-apical): 32 ×10⁻⁶ cm/s
- efflux in the MDCK efflux assay (in words) ([9]; MDCK): not subject to efflux
- membrane penetration (in words) ([9]; MDCK): penetrates membranes well
- A-B MDCK Permeability ([9]; apical-to-basolateral, MDR1-transfected MDCK cells): 32.3 10^−6 cm/sec
- B-A MDCK Permeability ([9]; basolateral-to-apical, MDR1-transfected MDCK cells): 32.1 10^−6 cm/sec
- MMN after Compound 1 plus MK-801 [10]: prevented impairment of MMN by MK-801
- stability in Human Liver Microsomes (in words) [11]: good stability
- HLM % Metabolized after 30 min ([11]; human liver microsomes, 30 min): 34.3%
- microsomal CLint ([11]; human liver microsomes, read-out: HLM mCLint): 27.3 µL/min/mg
- half-life ([11]; human liver microsomes, read-out: HLM t1/2): 0.847 h
- Oocyte 2EVC NR2C PAM: Concentration Required for Current Doubling (hNR2C; [13]): 120 nM
- Oocyte 2EVC NR2C PAM: Avg Max % Potentiation (hNR2C; [12]): 1800%
- EC50 (hNR2C; oocytes expressing hNR2C, 10 μM glutamate and 10 μM glycine): 1200 nM
